Source: US8592581B2, “Trisubstituted purine derivatives” (Cyclacel Limited, priority 2007, dated 2013)

Tests used:
CYP1A = CYP1A (Homo sapiens, UniProt P05177); test: CYP1A inhibition, human liver microsomes, ethoxyresorufin; assay type: in vitro ADME
Description: (§1) Six test compound concentrations (0.05, 0.25, 0.5, 2.5, 5, 25 μM in DMSO; final DMSO concentration=0.35%) were incubated with human liver microsomes (0.25 mg/mL) and NADPH (1 mM) in the presence of the probe substrate ethoxyresorufin (0.5 μM) for 5 min at 37° C. The selective CYP1A inhibitor, alpha-naphthoflavone, was screened alongside the test compounds as a positive control.
(§2) For the CYP1A incubations, the reactions were terminated by the addition of methanol, and the formation of the metabolite, resorufin, was monitored by fluorescence (excitation wavelength=535 nm, emission wavelength=595 nm). For the CYP2C9, CYP2C19, CYP2D6, and CYP3A4 incubations, the reactions were terminated by the addition of methanol containing internal standard. The samples were then centrifuged, and the supernatants were combined, for the simultaneous analysis of 4-hydroxytolbutamide, 4-hydroxymephenyloin, dextrorphan, and 1-hydroxymidazolam plus internal standard by LC-MS/MS using generic LC-MS/MS conditions. Formic acid in deionised water (final concentration=0.1%) was added to the final sample prior to analysis.

CYP2C19 [1] = target: T1, CYP2C19 (Homo sapiens (Human), UniProt P33261); test: CYP2C19 inhibition, human liver microsomes, mephenyloin; assay type: in vitro ADME
Description: (§3) Six test compound concentrations (0.05, 0.25, 0.5, 2.5, 5, 25 μM in DMSO; final DMSO concentration=0.25%) were incubated with human liver microsomes (0.5 mg/mL) and NADPH (1 mM) in the presence of the probe substrate mephenyloin (25 μM) for 60 min at 37° C. The selective CYP2C19 inhibitor, tranylcypromine, was screened alongside the test compounds as a positive control.
as §2

CYP2C9 [2] = target: T2, CYP2C9 (Homo sapiens (Human), UniProt P11712); test: CYP2C9 inhibition, human liver microsomes, tolbutamide; assay type: in vitro ADME
Description: as §3, with “(1” for “(0.5”, “tolbutamide (120” for “mephenyloin (25”, “CYP2C9” for “CYP2C19”, “sulphaphenazole,” for “tranylcypromine,”
as §2

CYP2D6 [3] = target: T3, CYP2D6 (Homo sapiens (Human), UniProt P10635); test: CYP2D6 inhibition, human liver microsomes, dextromethorphan; assay type: in vitro ADME
Description: as §3, with “dextromethorphan (5” for “mephenyloin (25”, “30” for “60”, “CYP2D6” for “CYP2C19”, “quinidine,” for “tranylcypromine,”
as §2

CYP3A4 [4] = target: T4, CYP3A4 (Homo sapiens (Human), UniProt P08684); test: CYP3A4 inhibition, human liver microsomes, midazolam; assay type: in vitro ADME; settings: human liver microsomes
Description: as §1, with “concentration 0.26%)” for “concentration=0.35%)”, “midazolam (2.5” for “ethoxyresorufin (0.5”, “CYP3A4” for “CYP1A”, “ketoconazole,” for “alpha-naphthoflavone,”
as §2

CYP2C19 [5] = target: T1, CYP2C19; test: Cytochrome P450 substrate identification (Bactosomes) CYP2C19; assay type: in vitro ADME; settings: pH 7.4, 5 μM test compound, up to 45 min, read-out: half life in the presence of CYP2C19
Description: (§4) cDNA expressed human CYP450 enzyme preparations co-expressed with human NADPH cytochrome P450 reductase (Bactosomes™) were supplied by Cypex Ltd. Bactosomes™ (final P450 concentration CYP1A2 100 pmol/mL, CYP2C8 50 pmol/mL, CYP2C9 25 pmol/mL, CYP2C19 100 pmol/mL, CYP2D6 50 pmol/mL and CYP3A4 25 pmol/mL), 0.1M phosphate buffer pH7.4 and test compound (final substrate concentration=5 μM; final DMSO concentration=0.25%) were pre-incubated at 37° C. prior to the addition of NADPH (final concentration=1 mM) to initiate the reaction. Incubations were also performed using control bactosomes (no P450 enzymes present) to reveal any non-enzymatic degradation. The final incubation volume was 25 μL. Compounds known to be metabolised specifically by each CYP450 isoform were used as control compounds.
(§5) Each compound was incubated singly for 0, 5, 15, 30 and 45 min with each CYP isoform. The reactions were stopped by the addition of 50 μL methanol containing internal standard at the appropriate time points. The incubation plates were centrifuged at 2500 rpm for 20 min at 4° C. to precipitate the protein. Following protein precipitation, the sample supernatants were combined in cassettes of up to four compounds and analysed using generic LC-MS/MS conditions.
(§6) The In peak area ratio (which has been corrected for any loss in the incubations with the control bactosomes) was plotted against time and the gradient of the line determined.
(§7) The elimination rate constant (k)=(−gradient)

CYP2C8 = CYP2C8 (Homo sapiens (Human), UniProt P10632); test: Cytochrome P450 substrate identification (Bactosomes) CYP2C8; assay type: in vitro ADME; settings: pH 7.4, 5 μM test compound, up to 45 min, read-out: half life in the presence of CYP2C8
Description: as §4, §5, §6, §7

CYP2C9 [6] = target: T2, CYP2C9; test: Cytochrome P450 substrate identification (Bactosomes) CYP2C9; assay type: in vitro ADME; settings: pH 7.4, 5 μM test compound, up to 45 min, read-out: half life in the presence of CYP2C9
Description: as §4, §5, §6, §7

CYP2D6 [7] = target: T3, CYP2D6; test: Cytochrome P450 substrate identification (Bactosomes) CYP2D6; assay type: in vitro ADME; settings: pH 7.4, 5 μM test compound, up to 45 min, read-out: half life in the presence of CYP2D6
Description: as §4, §5, §6, §7

CYP3A4 [8] = target: T4, CYP3A4; test: Cytochrome P450 substrate identification (Bactosomes) CYP3A4; assay type: in vitro ADME; settings: human, pH 7.4; Bactosomes, 5 μM test compound, up to 45 min; read-out: half life in the presence of CYP3A4
Description: as §4, §5, §6, §7

Mcl-1 = Mcl-1 downregulation in H460 cells by Western blotting; assay type: cell-based; settings: H460 cells, 24 hours, top concentration close to IC50
Description: The media was removed and the adherent cells washed with 5 ml PBS. […] Proteins were transferred to nitrocellulose membranes (Schleicher & Schuell, Dassel, Germany) using wet electrophoretic transfer. Membranes were stained with Ponceau S to confirm equal loading before blocking in 5% nonfat milk in PBS with 0.05% Tween 20 (PBSTM) for 2 hours. Membranes were incubated overnight at 4° C. with primary antibody (rabbit polyclonal antibody to Mcl-1, Santa Cruz), diluted 1:1000 in PBSTM. Membranes were washed 2×5 minute followed by 2×10 minute in PBS and 0.05% Tween 20 (PBST) and incubated for 1 hour in PBSTM containing horseradish peroxidase-conjugated secondary antibody. Membranes were washed as before and incubated with enhanced chemiluminescence solution (Amersham) and exposed to X-ray film (Amersham).
In a second experiment the effect of additional compounds on Mcl-1 levels was investigated.

T2 sequence (P11712 whole entry): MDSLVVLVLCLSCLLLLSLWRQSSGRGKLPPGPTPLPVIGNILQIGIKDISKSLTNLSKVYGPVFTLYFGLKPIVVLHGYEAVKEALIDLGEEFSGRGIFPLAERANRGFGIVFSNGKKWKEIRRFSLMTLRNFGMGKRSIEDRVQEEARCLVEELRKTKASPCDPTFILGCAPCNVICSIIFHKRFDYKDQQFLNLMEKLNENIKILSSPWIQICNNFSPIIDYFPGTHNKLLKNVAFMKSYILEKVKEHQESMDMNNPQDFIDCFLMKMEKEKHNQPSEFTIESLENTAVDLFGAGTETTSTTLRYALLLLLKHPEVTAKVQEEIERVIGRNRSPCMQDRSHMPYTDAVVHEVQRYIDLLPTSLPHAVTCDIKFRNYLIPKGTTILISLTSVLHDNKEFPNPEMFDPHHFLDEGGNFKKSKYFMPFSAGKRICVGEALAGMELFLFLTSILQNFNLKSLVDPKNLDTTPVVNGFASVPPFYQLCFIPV
Chain of CYP2C8 (P10632 whole entry): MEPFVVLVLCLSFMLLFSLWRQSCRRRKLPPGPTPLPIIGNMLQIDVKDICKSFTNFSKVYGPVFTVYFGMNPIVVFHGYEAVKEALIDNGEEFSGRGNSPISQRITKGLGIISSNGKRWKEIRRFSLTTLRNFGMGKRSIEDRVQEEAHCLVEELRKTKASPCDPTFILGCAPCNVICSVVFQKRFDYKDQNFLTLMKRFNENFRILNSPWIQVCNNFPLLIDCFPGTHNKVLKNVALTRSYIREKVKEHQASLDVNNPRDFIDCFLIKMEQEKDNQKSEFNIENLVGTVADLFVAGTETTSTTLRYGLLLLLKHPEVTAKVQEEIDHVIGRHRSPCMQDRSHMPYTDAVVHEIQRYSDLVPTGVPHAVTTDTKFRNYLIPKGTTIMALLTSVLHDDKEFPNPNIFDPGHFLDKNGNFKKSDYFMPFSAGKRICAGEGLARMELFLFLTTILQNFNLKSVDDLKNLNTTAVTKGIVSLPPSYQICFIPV
T4 sequence (P08684 whole entry): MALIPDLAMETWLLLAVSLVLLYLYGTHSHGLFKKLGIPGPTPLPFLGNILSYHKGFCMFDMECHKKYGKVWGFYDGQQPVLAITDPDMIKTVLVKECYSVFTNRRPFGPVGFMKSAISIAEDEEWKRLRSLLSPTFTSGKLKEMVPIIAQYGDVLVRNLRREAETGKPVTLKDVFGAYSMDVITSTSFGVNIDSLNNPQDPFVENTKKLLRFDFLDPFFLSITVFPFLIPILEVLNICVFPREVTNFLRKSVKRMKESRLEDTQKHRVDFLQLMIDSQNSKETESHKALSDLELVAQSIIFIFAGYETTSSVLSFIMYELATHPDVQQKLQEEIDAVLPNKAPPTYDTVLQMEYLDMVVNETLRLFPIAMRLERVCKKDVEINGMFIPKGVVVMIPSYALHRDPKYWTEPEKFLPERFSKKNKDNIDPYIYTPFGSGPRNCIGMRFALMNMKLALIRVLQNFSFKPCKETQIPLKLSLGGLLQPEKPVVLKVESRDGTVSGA
T1 sequence (P33261 whole entry): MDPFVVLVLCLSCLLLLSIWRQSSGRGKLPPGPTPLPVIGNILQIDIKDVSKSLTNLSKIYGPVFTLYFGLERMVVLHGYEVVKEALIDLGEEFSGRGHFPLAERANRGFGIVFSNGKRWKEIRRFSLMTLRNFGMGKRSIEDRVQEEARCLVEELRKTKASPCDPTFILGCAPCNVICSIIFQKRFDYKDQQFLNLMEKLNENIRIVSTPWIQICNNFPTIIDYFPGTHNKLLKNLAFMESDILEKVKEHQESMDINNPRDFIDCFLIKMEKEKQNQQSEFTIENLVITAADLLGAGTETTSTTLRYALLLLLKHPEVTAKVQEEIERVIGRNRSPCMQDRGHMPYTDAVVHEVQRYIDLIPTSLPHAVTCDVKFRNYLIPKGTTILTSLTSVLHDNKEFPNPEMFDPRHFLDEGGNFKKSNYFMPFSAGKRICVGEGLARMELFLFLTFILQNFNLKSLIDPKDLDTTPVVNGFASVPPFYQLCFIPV
Chain of CYP1A (P05177 2-516 limits assumed): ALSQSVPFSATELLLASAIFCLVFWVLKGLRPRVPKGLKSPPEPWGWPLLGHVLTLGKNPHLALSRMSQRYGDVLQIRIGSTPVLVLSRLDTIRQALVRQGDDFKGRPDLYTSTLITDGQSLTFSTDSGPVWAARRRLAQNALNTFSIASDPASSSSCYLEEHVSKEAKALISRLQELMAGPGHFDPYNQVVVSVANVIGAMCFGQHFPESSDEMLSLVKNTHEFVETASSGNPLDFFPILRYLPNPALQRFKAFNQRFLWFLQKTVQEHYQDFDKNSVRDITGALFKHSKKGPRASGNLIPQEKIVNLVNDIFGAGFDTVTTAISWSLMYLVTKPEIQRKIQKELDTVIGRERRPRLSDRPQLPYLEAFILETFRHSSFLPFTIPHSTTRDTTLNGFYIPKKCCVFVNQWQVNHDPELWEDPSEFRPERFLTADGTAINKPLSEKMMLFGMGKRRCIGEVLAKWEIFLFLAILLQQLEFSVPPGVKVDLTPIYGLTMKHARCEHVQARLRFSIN
T3 sequence (P10635 whole entry): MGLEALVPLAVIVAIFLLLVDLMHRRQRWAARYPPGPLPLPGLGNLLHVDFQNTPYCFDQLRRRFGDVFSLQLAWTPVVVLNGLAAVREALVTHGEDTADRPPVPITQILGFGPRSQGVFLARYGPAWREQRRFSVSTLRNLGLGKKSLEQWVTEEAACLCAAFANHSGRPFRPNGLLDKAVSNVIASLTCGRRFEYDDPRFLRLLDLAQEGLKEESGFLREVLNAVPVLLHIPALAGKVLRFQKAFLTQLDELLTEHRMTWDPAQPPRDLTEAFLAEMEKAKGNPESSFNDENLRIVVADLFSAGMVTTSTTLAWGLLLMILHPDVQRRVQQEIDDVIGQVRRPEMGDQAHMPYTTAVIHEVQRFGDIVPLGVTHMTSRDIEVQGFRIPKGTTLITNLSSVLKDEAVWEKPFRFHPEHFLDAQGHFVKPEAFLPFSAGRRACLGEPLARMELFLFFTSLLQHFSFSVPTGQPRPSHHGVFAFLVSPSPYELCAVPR

| SMILES | IC50 at 5 min (CYP1A) [µM] | IC50 (CYP2C19 [1]) [µM] | IC50 (CYP2C9 [2]) [µM] | IC50 (CYP2D6 [3]) [µM] | IC50 (CYP3A4 [4]) [µM] | half-life at 5 μM (CYP2C19 [5]) [min] | half-life at 5 μM (CYP2C8) [min] | half-life at 5 μM (CYP2C9 [6]) [min] | half-life at 5 μM (CYP2D6 [7]) [min] | half-life at 5 μM (CYP3A4 [8]) [min] | changes in Mcl-1 levels (in words) (Mcl-1) |
| --- | --- | --- | --- | --- | --- | --- | --- | --- | --- | --- | --- |
| CC[C@@H](Nc1nc(NCc2cccnc2)c2ncn(C(C)C)c2n1)C(C)(C)O [Compound [A1]] | > 25 | 19.9 | > 25 | > 25 | 1.63 | 58.3 | > 45 | > 45 | > 45 | 28.3 | – |
| CC[C@H](CO)Nc1nc(NCc2ccccc2)c2ncn(C(C)C)c2n1 [Seliciclib, seliciclib, reference compound] | – | – | – | – | – | – | – | – | – | – | very modest changes |
| CC[C@H](Nc1nc(NCc2cccnc2)c2ncn(C(C)C)c2n1)C(C)(C)O [[A2]] | > 25 | > 25 | > 25 | > 25 | 0.48 | > 45 | > 45 | > 45 | > 45 | 32.6 | – |
| CC[C@H](Nc1nc(NCc2cccnc2)c2ncn(C(C)C)c2n1)[C@@H](C)O [[A3]] | > 25 | > 25 | > 25 | > 25 | 1.88 | > 45 | > 45 | > 45 | > 45 | 18 | – |
